ChEMBL document CHEMBL5291721, “A preclinical secondary pharmacology resource illuminates target-adverse drug reaction associations of marketed drugs” (Nat Commun, 2023)

Experiments:
[1] = molecular target: T1, Alpha-2C adrenergic receptor (Homo sapiens, UniProt P18825); assay type: functional
T1 sequence (P18825 whole entry): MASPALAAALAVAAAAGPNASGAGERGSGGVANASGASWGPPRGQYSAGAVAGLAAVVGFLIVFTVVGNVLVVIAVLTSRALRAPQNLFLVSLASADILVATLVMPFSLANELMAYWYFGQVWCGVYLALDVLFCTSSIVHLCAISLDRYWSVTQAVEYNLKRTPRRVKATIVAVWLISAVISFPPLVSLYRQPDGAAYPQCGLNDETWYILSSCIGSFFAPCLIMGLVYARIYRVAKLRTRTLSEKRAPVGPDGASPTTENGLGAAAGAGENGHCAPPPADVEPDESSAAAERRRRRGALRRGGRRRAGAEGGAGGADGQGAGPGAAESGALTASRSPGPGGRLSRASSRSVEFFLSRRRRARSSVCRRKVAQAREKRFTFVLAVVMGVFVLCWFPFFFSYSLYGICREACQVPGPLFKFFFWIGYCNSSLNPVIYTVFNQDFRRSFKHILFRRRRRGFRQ

Acetylcholinesterase = Acetylcholinesterase (Homo sapiens, UniProt P22303); assay type: functional
Also: assay procedure not described here.

Chain of Acetylcholinesterase (P22303 whole entry): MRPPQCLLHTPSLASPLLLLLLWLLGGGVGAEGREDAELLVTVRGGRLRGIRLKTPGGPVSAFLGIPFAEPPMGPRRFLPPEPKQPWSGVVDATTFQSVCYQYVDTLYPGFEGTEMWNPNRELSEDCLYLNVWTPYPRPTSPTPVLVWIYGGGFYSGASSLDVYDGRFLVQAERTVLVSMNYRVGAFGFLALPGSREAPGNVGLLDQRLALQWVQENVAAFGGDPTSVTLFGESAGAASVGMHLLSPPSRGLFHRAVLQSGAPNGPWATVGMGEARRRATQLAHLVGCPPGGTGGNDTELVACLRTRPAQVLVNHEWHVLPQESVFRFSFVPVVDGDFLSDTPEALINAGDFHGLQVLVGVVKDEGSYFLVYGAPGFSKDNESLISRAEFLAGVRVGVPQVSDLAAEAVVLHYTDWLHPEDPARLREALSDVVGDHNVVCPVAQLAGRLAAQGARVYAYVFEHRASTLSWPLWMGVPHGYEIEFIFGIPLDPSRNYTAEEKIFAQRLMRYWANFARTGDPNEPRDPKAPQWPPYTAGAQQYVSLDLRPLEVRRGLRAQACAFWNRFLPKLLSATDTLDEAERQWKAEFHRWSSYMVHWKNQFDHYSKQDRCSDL

Structure (SMILES)	AC50 [1]	AC50 (Acetylcholinesterase)
Cc1[nH]cnc1CN1CCc2c(c3ccccc3n2C)C1=O [ALOSETRON]	9.3 µM	–
C=CC(=O)N1CCC[C@@H](n2nc(-c3ccc(Oc4ccccc4)cc3)c3c(N)ncnc32)C1 [IBRUTINIB]	–	> 30 µM
CN1C[C@H](CNC(=O)OCc2ccccc2)C[C@@H]2c3cccc4c3c(cn4C)C[C@H]21 [METERGOLINE]	–	1.1 µM
